According to PMC10144058, “New Hybrid Scaffolds Based on 5-FU/Curcumin: Synthesis, Cytotoxic, Antiproliferative and Pro-Apoptotic Effect” (Pharmaceutics, 2023):
Where two headings read alike, the source gives them in different places.

Legend:
[1] = test system: U937 cell line; parameters: method as in PMID 33213229; conditions: cited from earlier work
[2] = test system: HL-60 cell line; parameters: method as in PMID 33213229; conditions: cited from earlier work
[3] = test system: K562 cell line; parameters: method as in PMID 33213229; conditions: cited from earlier work
[4] = test system: HCEC non-malignant epithelial cells; parameters: method as in PMID 31097715; conditions: HCEC non-malignant corneal epithelial cells; cited from earlier work
[5] = test system: HCT116 cells; parameters: method as in PMID 31097715; conditions: cited from earlier work
[6] = test system: CHO-K1 cells; assay: Cell viability, sulforhodamine B (SRB) assay, non-malignant cells; assay type: cell-based, Chinese Hamster; conditions: Cricetulus griseus
Description: (§1) SW480 (colon adenocarcinoma) and SW620 (derived metastatic) malignant cell lines, and the non-malignant lines HaCaT (human keratinocytes) and CHO-K1 (Chinese Hamster Ovary), were obtained from the European Collection of Authenticated Cell Cultures (ECACC, Porton Down, Salisbury, UK). The cells were maintained in Dulbecco’s Modified Eagle’s Medium (DMEM), supplemented with 10% equine serum previously inactivated at 56 °C, 1% penicillin/streptomycin, and 1% non-essential amino acids, and incubated at 37 °C in an atmosphere with 5% CO2. To carry out the experiments, the serum was diluted to 3% and additionally supplemented with […] insulin, […] transferrin, and 5 ng/mL selenium. Cells were used for experimentation when they reached 80–90% confluence, using a 1X trypsin enzymatic disintegration method. To avoid contamination by Mycoplasma spp., cell cultures were periodically analyzed by polymerase chain reaction (PCR).
(§2) Cell viability was evaluated with a sulforhodamine B (SRB) assay. This technique provides an index of protein contents in living and adherent cells, whose optical density can be related to cell concentration. Initially, 20,000 cells were seeded per well in 96-well culture plates. An initial adherence period of 24 h was performed at 37 °C, 5% CO2, and after this, the medium was replaced by another that contained the hybrid compounds in different concentrations. Then, the cells were left incubating for 24 and 48 h under the same conditions previously described. After the respective incubation times, the cells were fixed with trichloroacetic acid (50% v/v) for 1 h at 4 °C and stained with 0.4% (p/v) of SRB. Subsequently, washings with 1% acetic acid were carried out to eliminate possible nonspecific bindings, and after solubilization with 10 mM Tris-base, the absorbance was read at 492 nm in a microplate reader (Mindray MR-96A). All the experiments were carried out in triplicate.

[7] = test system: SW480 cells; assay: Cell viability, sulforhodamine B (SRB) assay; assay type: cell-based; conditions: Homo sapiens
Description: as §1, §2

[8] = test system: SW620 cells; assay: Cell viability, sulforhodamine B (SRB) assay; assay type: cell-based, human; conditions: Homo sapiens
Description: as §1, §2

[9] = test system: HaCaT cells; assay: Cell viability, sulforhodamine B (SRB) assay, non-malignant cells; assay type: cell-based; conditions: Homo sapiens
Description: as §1, §2

[10] = test system: SW480 cells; assay: Antiproliferative activity (SRB, 0-8 days); assay type: cell-based; conditions: Homo sapiens, read-out: Cell Viability (%) ± SE; for viability at 2.5 µM: SW480, 2.5 µM; for viability at 40 µM: SW480, 40 µM
Description: For this experiment, the same colorimetric method (SRB) from the evaluation of cell viability was used, although with some modifications. Initially, 2500 cells per well were seeded in 96-well culture plates, and a 24 h adherence period was performed at 37 °C in a 5% CO2 atmosphere. […] For this assay, incubation periods of 0, 2, 4, 6, and 8 days were used, and the fixation, staining, and reading conditions were the same as those previously described for the cytotoxicity assay.

[11] = test system: caspase 3, caspase 7, caspase 8 and p53 in SW480 cells; assay: Apoptotic biomarkers (ELISA); assay type: cell-based, human; conditions: SW480, treated with IC50, 48 h, vs control
Description: To provide an approach to the possible molecular mechanisms through which the hybrid compounds induce an effect on the cell lines, different proteins related to the process of death by apoptosis were determined. For this method, 1,000,000 cells were initially seeded per Petri dish, with an adherence period of 24 h at 37 °C in a 5% CO2 atmosphere. […] Later, the consumed medium was discarded, and after the addition of the versene buffer, the cells were obtained by mechanical disaggregation. The cells were then lysed with a cell lysis buffer and centrifuged to obtain the supernatant, which was used to determine the biomarkers of interest by enzyme-linked immunosorbent assays. These ELISA kits were provided by Elabscience Biotechnology Co., Houston, TX, USA [26].

[12] = test system: SW480 cells; assay: Cell cycle analysis (PI, flow cytometry); assay type: cell-based, human; conditions: SW480, treated with IC50 value, 48 h
Description: The method used for the recognition of cell cycle phases (G0/G1, S, G2/M) was based on staining with a fluorescent dye (propidium iodide—PI), as a direct relationship between fluorescence intensity and DNA content can be established. For this method, 250,000 cells/well were initially seeded in 6-well culture plates with an adherence period of 24 h at 37 °C in a 5% CO2 atmosphere. […] After treatment, cells were obtained by mechanical disaggregation, and the cell pellet was centrifuged and washed with a versene buffer. The cell pellet was fixed with 1.8 mL of cold 70% ethanol and kept at 4 °C overnight. Subsequently, two washes with a versene buffer were performed, and the pellet was resuspended in 300 µL of PBS containing 0.25 mg/mL of RNAsa and 0.1 mg/mL of PI. After a 30 min period of dark incubation, the fluorescence of 10,000 cells was analyzed using a FACS Canto II flow cytometer. The PI signal was analyzed with excitation at 488 nm using a sapphire laser, and fluorescence was detected at 610 nm. The data analysis was performed with FlowJo 10.8.1 software.

[13] = test system: SW480 cells; assay: Mitochondrial membrane potential (DiOC6/PI, flow cytometry); assay type: cell-based, human; conditions: SW480, treated with IC50, 48 h
Description: The fluorescent dyes PI and DIOC6 (3,3’-dihexyloxacarbocyanine iodide) were used to observe the depolarization of the mitochondrial membrane as well as possible cell membrane damage. For this method, 250,000 cells/well were initially seeded in 6-well culture plates during a 24 h adherence period at 37 °C in a 5% CO2 atmosphere. […] After treatment, cells were obtained by mechanical disaggregation, stained with DiOC6 and PI, and incubated at room temperature for 30 min in the dark. Ten thousand events were analyzed by flow cytometry with excitation at 488 nm and emission detection with green (530/15 nm) and red (610/20 nm) filters.

[14] = test system: SW620 cells; parameters: method as in PMID 36297411; conditions: cited from earlier work

SMILES	IC50 ([6]; CHO-K1, 24 h) [µM]	IC50 ([6]; CHO-K1, 48 h) [µM]	IC50 ([7]; SW480, 24 h) [µM]	IC50 ([7]; SW480, 48 h) [µM]	IC50 ([8]; SW-620, 24 h, 24 h) [µM]	IC50 ([8]; SW-620, 48 h, 48 h) [µM]	IC50 ([9]; 24 h) [µM]	IC50 ([9]; 48 h) [µM]	melting point [°C]	further results
CC1(C)CCC(C)(C)c2cc(NC(=O)c3ccc(C(=O)OCn4cc(F)c(=O)[nH]c4=O)cc3)ccc21 [B]										IC50 [1]: 8.21 µM; IC50 [2]: 9.87 µM; IC50 [3]: 10.6 µM
CC1=C(CCC(=O)OCn2cc(F)c(=O)[nH]c2=O)C(=O)C(C(C)C)=CC1=O [C]										IC50 [4]: 52 µM; IC50 [5]: 16 µM
O=c1[nH]cc(F)c(=O)[nH]1 [Compound 5-FU, 5-fluorouracil, reference compound]	544 ± 52.9	173 ± 14.6	1540 ± 128	174 ± 19.1	899 ± 60.7	181 ± 18.8	> 1000	119 ± 2.84		
COc1cc(/C=C/C(=O)c2ccc(OCCn3cc(Cn4cc(F)c(=O)[nH]c4=O)nn3)cc2)ccc1O [Compound 6a, (E)-5-fluoro-1-((1-(2-(4-(3-(4-hydroxy-3-methoxyphenyl)acryloyl)phenoxy)ethyl)-1H-1,2,3-triazol-4-yl)methyl)pyrimidine-2,4(1H,3H)-dione]	82.8 ± 6.43	73.7 ± 1.07	75.3 ± 4.65	17.4 ± 1.16	> 100	45.1 ± 0.98	71.8 ± 4.22	27.9 ± 2.53		viability at 2.5 µM ([10]; 48 h, 2 days after plating): 97.9 ± 1.55%; viability at 40 µM ([10]; 48 h, 2 days after plating): 16.2 ± 2.51%; viability at 2.5 µM ([10]; 96 h, 4 days after plating): 81.2 ± 2.8%; viability at 40 µM ([10]; 96 h, 4 days after plating): 8 ± 1.81%; viability at 2.5 µM ([10]; 144 h, 6 days after plating): 59.5 ± 3.45%; viability at 40 µM ([10]; 144 h, 6 days after plating): 2.04 ± 0.35%; viability at 2.5 µM ([10]; 192 h, 8 days after plating): 42.8 ± 1.3%; viability at 40 µM ([10]; 192 h, 8 days after plating): 0%; levels of biomarkers (caspase 3, caspase 7, caspase 8, p53) [11]: no significant differences; Cell cycle distribution, G0/G1 [12]: 53.6%; Cell cycle distribution, G2/M [12]: 22.2%; Cell cycle distribution, S Phase [12]: 24.1%; Cell cycle distribution, Sub G0/G1 [12]: 0%; Dioc6 High population (live cells with high membrane polarization) [13]: 84.9%; Dioc6 Low population (cells that lose membrane polarization) [13]: 0%; PI+ population (membrane damage or dead cells) [13]: 15%; changes in the mitochondrial membrane potential [13]: do not induce significant changes
COc1cc(/C=C/C(=O)c2ccc(OCCCn3cc(Cn4cc(F)c(=O)[nH]c4=O)nn3)cc2)ccc1O [Compound 6b, (E)-5-fluoro-1-((1-(3-(4-(3-(4-hydroxy-3-methoxyphenyl)acryloyl)phenoxy)propyl)-1H-1,2,3-triazol-4-yl)methyl)pyrimidine-2,4(1H,3H)-dione]	51.3 ± 2.86	46.5 ± 1.34	48.4 ± 2.82	17.1 ± 0.8	90.2 ± 9.33	33.7 ± 1.03	58.1 ± 3.3	18.4 ± 1.1	124 to 129	
COc1cc(/C=C/C(=O)c2ccc(OCCCCn3cc(Cn4cc(F)c(=O)[nH]c4=O)nn3)cc2)ccc1O [Compound 6c, (E)-5-fluoro-1-((1-(4-(4-(3-(4-hydroxy-3-methoxyphenyl)acryloyl)phenoxy)butyl)-1H-1,2,3-triazol-4-yl)methyl)pyrimidine-2,4(1H,3H)-dione]	26.3 ± 2.99	30.5 ± 2.18	30.4 ± 2.69	16.4 ± 0.97	83.9 ± 8.08	28.1 ± 1.85	45.4 ± 4.18	19.1 ± 1.68	61 to 65	
COc1cc(/C=C/C(=O)c2ccc(OCCCCCCCCn3cc(Cn4cc(F)c(=O)[nH]c4=O)nn3)cc2)ccc1O [Compound 6f, (E)-5-fluoro-1-((1-(8-(4-(3-(4-hydroxy-3-methoxyphenyl)acryloyl)phenoxy)octyl)-1H-1,2,3-triazol-4-yl)methyl)pyrimidine-2,4(1H,3H)-dione]	> 100	> 100	> 100	29.7 ± 2.43	> 100	> 100	> 100	35.1 ± 4.74	98 to 102	
COc1cc(/C=C/C(=O)c2ccc(OCCCCCCCCCn3cc(Cn4cc(F)c(=O)[nH]c4=O)nn3)cc2)ccc1O [Compound 6g, (E)-5-fluoro-1-((1-(9-(4-(3-(4-hydroxy-3-methoxyphenyl)acryloyl)phenoxy)nonyl)-1H-1,2,3-triazol-4-yl)methyl)pyrimidine-2,4(1H,3H)-dione]	> 100	> 100	> 100	> 100	> 100	> 100	> 100	> 100	113 to 120	
COc1cc(/C=C/C(=O)c2ccc(OCCCCCCCCCCCCn3cc(Cn4cc(F)c(=O)[nH]c4=O)nn3)cc2)ccc1O [Compound 6h, (E)-5-fluoro-1-((1-(12-(4-(3-(4-hydroxy-3-methoxyphenyl)acryloyl)phenoxy)dodecyl)-1H-1,2,3-triazol-4-yl)methyl)pyrimidine-2,4(1H,3H)-dione]	> 100	> 100	> 100	> 100	> 100	> 100	> 100	> 100	129 to 135	
COc1cc(/C=C/C(=O)CC(=O)/C=C/c2ccc(O)c(OC)c2)ccc1O [Curcumin, curcumin]	20.2 ± 2.41	36.3 ± 4.17	84.6 ± 6.6	90.4 ± 1	164 ± 5.88	22.2 ± 2.37	> 100	28.8 ± 2.33		
O=c1[nH]c(=O)n(Cc2cn(CCCCCCCCCOc3cc(O)c4c(=O)c(-c5ccc(O)cc5)coc4c3)nn2)cc1F [F]										IC50 [14]: 36.8 ± 0.71 µM
